Source: the CheMixHub viscosity set

Experiment: xn = mol fraction of the nth substance listed

C1CCOC1 + CCCO
viscosity [mPa·s], 101 kPa
Conditions	298.15 K	303 K	313 K
x1 = 0.0992	–	1.22	1.04
x1 = 0.1999	–	1.08	0.9
x1 = 0.2846	–	1	0.85
x1 = 0.39	–	0.91	0.77
x1 = 0.5	0.7603	–	–
x1 = 0.5146	–	0.8	0.69
x1 = 0.5918	–	0.73	0.65
x1 = 0.7012	–	0.64	0.57
x1 = 0.8028	–	0.57	0.51
x1 = 0.894	–	0.5	0.47
x1 = 0.9761	–	0.44	0.42

CC(=O)Oc1ccccc1C(=O)O + CCCO
viscosity [mPa·s], 101 kPa
Conditions	x1 = 0.00057	x1 = 0.000763	x1 = 0.000955	x1 = 0.00115	x1 = 0.00134	x1 = 0.00153	x1 = 0.00191
293.15 K	2.257	2.26	2.261	2.262	2.265	2.266	2.27
298.15 K	2.207	2.209	2.21	2.211	2.213	2.215	2.217
303.15 K	1.718	1.719	1.719	1.721	1.722	1.723	1.726
308.15 K	1.622	1.623	1.624	1.625	1.626	1.627	1.628
310.15 K	1.458	1.459	1.459	1.46	1.46	1.461	1.461
313.15 K	1.397	1.398	1.399	1.399	1.399	1.4	1.401

COc1ccccc1 + CCCO
viscosity [mPa·s], 101 kPa
Conditions	x1 = 0.1207	x1 = 0.236	x1 = 0.3462	x1 = 0.4516	x1 = 0.5526	x1 = 0.6495	x1 = 0.7424	x1 = 0.8317	x1 = 0.9175
303 K	1.448	1.219	1.138	1.075	0.9286	0.8908	0.8219	0.8308	0.8695
313 K	1.176	1.046	0.9616	0.8924	0.7921	0.7847	0.7639	0.7523	0.7392
323 K	0.9186	0.8788	0.759	0.7338	0.6514	0.6115	0.6084	0.5967	0.598

C1CCOC1 + CCO
Conditions	viscosity [mPa·s]
298.15 K, 101 kPa, x1 = 0.4	0.6728

CC(C)=O + CCO
298.15 K, 101 kPa
Conditions	viscosity [mPa·s]
x1 = 0.1868	0.7168
x1 = 0.2337	0.651
x1 = 0.3003	0.5795
x1 = 0.3162	0.5636
x1 = 0.378	0.5162
x1 = 0.3887	0.5028
x1 = 0.4579	0.462
x1 = 0.6529	0.3836

CC1COC(=O)O1 (stereo not drawn) + CCO
298 K, 101.3 kPa
Conditions	viscosity [mPa·s]
x1 = 0.021	1.1
x1 = 0.0404	1.116
x1 = 0.06	1.131
x1 = 0.0806	1.147
x1 = 0.0987	1.161
x1 = 0.2008	1.237
x1 = 0.3003	1.312
x1 = 0.4003	1.397
x1 = 0.5002	1.497
x1 = 0.6002	1.619
x1 = 0.7001	1.768
x1 = 0.8	1.947
x1 = 0.9005	2.165

COc1ccccc1 + CCO
298.15 K, 101 kPa
Conditions	viscosity [mPa·s]
x1 = 0.07099	1.045
x1 = 0.152	0.989
x1 = 0.2432	0.947
x1 = 0.3485	0.918
x1 = 0.4715	0.904
x1 = 0.6165	0.905
x1 = 0.7928	0.924

Cc1ccccc1 + CCO
Conditions	viscosity [mPa·s]
293.2 K, 101.32 kPa, x2 = 0.05	0.568
293.2 K, 101.32 kPa, x2 = 0.136	0.587
293.2 K, 101.32 kPa, x2 = 0.28	0.616
293.2 K, 101.32 kPa, x2 = 0.55	0.731
293.2 K, 101.32 kPa, x2 = 0.735	0.861
303 K, 101 kPa, x1 = 0.1006	0.821
303 K, 101 kPa, x1 = 0.2012	0.786
303 K, 101 kPa, x1 = 0.3009	0.724
303 K, 101 kPa, x1 = 0.3981	0.686
303 K, 101 kPa, x1 = 0.5016	0.643
303 K, 101 kPa, x1 = 0.6052	0.613
303 K, 101 kPa, x1 = 0.7001	0.602
303 K, 101 kPa, x1 = 0.8095	0.569
303 K, 101 kPa, x1 = 0.9011	0.551
303 K, 101.33 kPa, x2 = 0.3333	0.574
303 K, 101.33 kPa, x2 = 0.5714	0.651
303 K, 101.33 kPa, x2 = 0.75	0.774
303 K, 101.33 kPa, x2 = 0.8889	0.927
303.15 K, 101.33 kPa, x1 = 0.0692	0.893
303.15 K, 101.33 kPa, x1 = 0.1849	0.803
303.15 K, 101.33 kPa, x1 = 0.3191	0.699
303.15 K, 101.33 kPa, x1 = 0.5285	0.596
303.15 K, 101.33 kPa, x1 = 0.5858	0.575
303.15 K, 101.33 kPa, x1 = 0.6901	0.546
303.15 K, 101.33 kPa, x1 = 0.7906	0.527
303.15 K, 101.33 kPa, x1 = 0.8565	0.519
303.15 K, 101.33 kPa, x1 = 0.9213	0.524
308.15 K, 101.33 kPa, x1 = 0.0692	0.814
308.15 K, 101.33 kPa, x1 = 0.1849	0.736
308.15 K, 101.33 kPa, x1 = 0.3191	0.642
308.15 K, 101.33 kPa, x1 = 0.5285	0.552
308.15 K, 101.33 kPa, x1 = 0.5858	0.533
308.15 K, 101.33 kPa, x1 = 0.6901	0.507
308.15 K, 101.33 kPa, x1 = 0.7906	0.491
308.15 K, 101.33 kPa, x1 = 0.8565	0.486
308.15 K, 101.33 kPa, x1 = 0.9213	0.493
313 K, 101.33 kPa, x2 = 0.3333	0.504
313 K, 101.33 kPa, x2 = 0.5714	0.557
313 K, 101.33 kPa, x2 = 0.75	0.654
313 K, 101.33 kPa, x2 = 0.8889	0.778
323 K, 101.33 kPa, x2 = 0.3333	0.446
323 K, 101.33 kPa, x2 = 0.5714	0.479
323 K, 101.33 kPa, x2 = 0.75	0.557
323 K, 101.33 kPa, x2 = 0.8889	0.648
